A compilation of properties of binary mixtures (doi:10.1021/acs.jced.1c00924)

Assay: xn = mol fraction of the nth substance listed
Conditions: 100 kPa

CCOP(=O)([O-])OCC.CC[n+]1ccn(C)c1 + CCO
viscosity [mPa·s]
Conditions | 293.15 K | 298.15 K | 303.15 K | 308.15 K | 313.15 K | 318.15 K | 323.15 K | 328.15 K | 333.15 K | 338.15 K
x1 = 0.1002 | 3.82 | 3.46 | 3.1 | 2.8 | 2.58 | 2.39 | 2.28 | – | 2.05 | 1.94
x1 = 0.1992 | 8.71 | 7.58 | 6.67 | 5.96 | 5.38 | 4.92 | 4.57 | – | 4.06 | 3.86
x1 = 0.2987 | 18.6 | 15.84 | 13.57 | 11.74 | 10.35 | 9.23 | 8.34 | 7.65 | 7 | 6.48
x1 = 0.4007 | 35.9 | – | – | 20.9 | 18 | 15.6 | 13.64 | 12.11 | – | 9.9
x1 = 0.5007 | 65.5 | 52 | 41.8 | 34.4 | 28.6 | 24 | 20.8 | 18.1 | 15.82 | 13.95
x1 = 0.5993 | 106.8 | 83 | 64.6 | 51.6 | 41.6 | 34.2 | 28.8 | – | 20.8 | 18.1
x1 = 0.7003 | – | – | 102.1 | – | 63.3 | 50.3 | – | 33.5 | 28.1 | –
x1 = 0.8 | 256 | 187 | – | 107.6 | 82.5 | 65.4 | 52.6 | 42.7 | 35 | 29.3
x1 = 0.8985 | – | 271 | – | 146.8 | 112.5 | – | 68.7 | 54.6 | 44.5 | 36.5
x1 = 1 | – | 397 | 285 | 209 | – | 117.2 | 91.7 | 71.2 | 57.3 | 46.2

CCO + CCOP(=O)([O-])OCC.CC[n+]1ccn(C)c1
x2 = 0
Conditions | viscosity [mPa·s]
293.15 K | 1.18
298.15 K | 1.11
303.15 K | 0.98
308.15 K | 0.89
313.15 K | 0.82
323.15 K | 0.69
328.15 K | 0.65
333.15 K | 0.6
338.15 K | 0.56
